Data set [1] deals with T1, IDO1 (Homo sapiens, UniProt P14902).
T1 construct: purchased NTRC NTRC-hTDO-1K
The data set can be described thus: IDO1 enzyme activity test (NFK Green). The data set is classed as biochemical. As to conditions: 10 nM IDO1, 100 uM L-tryptophan, NFK green fluorescence; read-out: IDO IC50. The procedure:
1. IDO1 Enzyme Activity Test Method (NFK Green)
Content of research: the inhibitory effect of the compound on the activity of IDO1 enzyme was examined.
IDO assay kit (NTRC, Cat. No. NTRC-hTDO-1K), DMSO (Sigma, Cat. No. D2650), 384-well plate_compound dilution plate (Greiner, Cat. No. 781280), 384-well plate_test plate (Perkin Elmer, Cat. No. 6007299)
10 nM IDO1 was incubated with compound or DMSO at 23° C. for 30 minutes, and L-type tryptophan was added at a final concentration of 100 uM and reacted for 1.5 hours. NFK green was added and incubated at 37° C. for 4 hours, and fluorescence signal data (excitation band, 400/25; emission band, 510/20) was corrected with Envision. Data analysis and mapping was conducted by XLfit5 software.
The test compounds and the reference compound LW3018 were finally tested at concentrations ranging from […] to 0.51 nM, 3-fold gradient dilution, 10 concentrations, and two replicate wells.

Data set [2] has as its target T2, IDO1 in Hela cells (Homo sapiens, UniProt P14902).
T2 construct: endogenous in cells; host or cells: Hela cells, IFN-gamma stimulated
In words: IDO cytology test (LC-MS), kynurenine in IFN-gamma-stimulated Hela cells. The data set is classed as cell-based. To be noted: interferon gamma 100 ng/mL, 20 h, kynurenine by LC/MS. An excerpt: 2. IDO Cytology Test Method (LC-MS)
Content of research: the inhibitory effect of the compound on the activity of IDO1 in Hela cells was examined.
RPMI 1640 (phenol red free) medium (Invitrogen Cat. No. 11835030), fetal bovine serum (Invitrogen Cat. No. 10099141), penicillin and streptomycin (Invitrogen Gibco Cat. No. 15140-122), recombinant human interference γ (R&D system, Cat. No. 285-IF-100). 5% (w/v) trichloroacetic acid (Alfa Aesar Cat. No. A11156), DMSO (Sigma, Cat. No. D2650), 96-well plate_compound dilution plate (Axygen, Cat. No. WIPP02280), 96-well plate_test plate (Greiner, Cat. No. 655090)
The test compounds and the reference compound LW3018 were finally tested at concentrations ranging from […] to 0.76 nM, 3-fold gradient dilution, 9 concentrations, and two replicate wells.
Hela cells were plated in 96-well cell culture plates at a number of 40,000 cells per well, and incubated with RPMI 1640 containing 10% fetal bovine serum for 5-6 hours. The diluted test compound and recombinant human interferon gammaa (final concentration at 100 ng/mL) were added to activate IDO1 expression. The cells were cultured in a 37° C. cell incubator which was enriched with 5% carbon dioxide for 20 hours, and the reaction was stopped with 5% trichloroacetic acid and incubated for 30 minutes at 50° C. After the cell culture solution was precipitated, the supernatant was sent to LC/MS to detect the content of kynurenine. Data analysis and mapping was conducted by XLfit5 software.

A short description of data set [3]: Pharmacokinetics of LW105-1-1 in mice. The data set is classed as in vivo. To be noted: plasma, male C57BL/6 mice; for AUC(0-t): male, C57BL/6, mouse; for MRT last: read-out: MRT0-last; for bioavailability: after dose standardization, read-out: F% (absolute bioavailability); for Cmax: read-out: Cmax (head printed as image). The procedure:
18 male C57BL/6 mice were intragastrically or intravenously administered with compound LW105-1-1 (Table 3).
The preparation containing 5% DMA and 20% HPbCD aqueous solution as a solvent was administered by intravenous injection, and a preparation containing a solution comprising 5% DMA, 20% HPbCD and 0.1% CREMOPHOR EL as a solution was intragastrically administered. The animal strain was male C57BL/6 mice. Prior to the animal experiment, all animals were fasted and fed 4 hours after dosing; all animals were given free access to water.
Intravenous administration group: before administration, 0.083, 0.25, 0.5, 1, 2, 4, 8 and 24 hours after.
Oral administration group: before administration, 0.25, 0.5, 1, 2, 4, 8 and 24 hours after
Whole blood samples (0.03 mL) were collected from the saphenous vein at the indicated time (or other suitable blood collection sites), and all blood samples were added to a plastic centrifuge tube pre-filled with K2-EDTA anticoagulant and labeled. After the blood sample was collected, centrifuged for 10 minutes under 2 to 8° C. at 3000 g, and the supernatant plasma was aspirated, and quickly placed in dry ice, and kept at −20° C. or lower for LC-MS/MS analysis.
The concentrations of all samples were analyzed using LC-MS/MS. Plasma mean concentrations were processed using a non-compartmental model of WinNonlin™ Version 6.3 (Pharsight, Mountain View, Calif.) pharmacokinetic software, and pharmacokinetic parameters were calculated by linear logarithmic trapezoidal method.

Data set [4] relates to mouse colorectal cancer CT26 transplanted tumor. In words: In vivo efficacy test of mouse colorectal cancer CT26 transplanted tumor. The procedure:
Example 5 In Vivo Efficacy Test of Mouse Colorectal Cancer CT26 Transplanted Tumor
Under sterile conditions, CT26 cells in the proliferative phase were harvested, cell concentration was adjusted after digestion, and inoculated into the right hind limb of the mouse. Each mouse was inoculated with 1×10^5 CT26 cells in an inoculation volume of 0.1 mL. Four days after the inoculation, the average tumor volume was close to 20-30 mm^3, and the mouse was administered in a randomized group. The day of administration was recorded as DO, and the negative control was given same amount of vehicle. Co-administration of LW 105-1-1 with Anti-CTLA4 antibody was also tested in this experiment. After the administration was started, the tumor long diameter and short diameter were measured 3 times per week.

We go through five compounds from US11370766B2, “Sulfonyl amidine as indoleamine-2,3-dioxygenase inhibitor, and preparation method therefor and use thereof” (SHANGHAI LONGWOOD BIOPHARMACEUTICALS CO., LTD., priority 2016, dated 2022).

Read-outs that look alike come from different tables or passages of the source.

T2 sequence (P14902 whole entry): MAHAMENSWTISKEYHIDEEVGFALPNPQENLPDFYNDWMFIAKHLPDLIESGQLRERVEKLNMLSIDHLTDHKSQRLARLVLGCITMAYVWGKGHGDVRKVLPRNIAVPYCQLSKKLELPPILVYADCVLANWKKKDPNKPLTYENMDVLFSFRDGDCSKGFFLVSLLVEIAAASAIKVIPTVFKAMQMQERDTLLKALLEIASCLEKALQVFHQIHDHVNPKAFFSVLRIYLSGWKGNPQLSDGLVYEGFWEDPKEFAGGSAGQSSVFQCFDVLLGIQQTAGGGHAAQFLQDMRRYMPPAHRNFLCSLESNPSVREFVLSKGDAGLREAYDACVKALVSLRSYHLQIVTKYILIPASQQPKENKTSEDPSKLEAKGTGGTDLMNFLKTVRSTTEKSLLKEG
T1 sequence (P14902 whole entry): as above

A word on the IC50: it is the concentration that gives 50% inhibition. `CC(C)S(=N)(=O)NCCNc1nonc1C(=NO)Nc1ccc(F)c(Br)c1` (stereo not drawn) [LW105-1-3]: the IC50 in data set [1] stood at 19.4 nM; in data set [2], 12.7 nM.

In the case of `N=S(=O)(NCCNc1nonc1C(=NO)Nc1ccc(F)c(Br)c1)C1CC1` (stereo not drawn) [LW105-1-4], the IC50 in data set [1] was 29.4 nM; in data set [2], 7.2 nM.

Take `CS(=N)(=O)NCCCNc1nonc1C(=NO)Nc1ccc(F)c(Br)c1` (stereo not drawn) [LW105-1-11]: the figures for the IC50 in data set [1] and in data set [2] were 26.5 nM and 11.1 nM, respectively.

As for `CCS(=N)(=O)NCCNc1nonc1C(=NO)Nc1ccc(F)c(Br)c1` (stereo not drawn) [LW105-1-2], the IC50 in data set [1] came out at 25.2 nM; in data set [2], 15.6 nM.

For orientation: AUC(0-t) means exposure summed from dosing to a finite time, without extrapolation to infinity. The AUC(0-inf) is total exposure, with the tail of the curve extrapolated. Read a low AUC(0-inf) as less exposure. Broadly, the clearance is the rate of elimination divided by the concentration. The low end stands for inefficient removal, the high end for efficient removal. By Tmax is commonly meant the time from dosing to the highest level. Broadly, the bioavailability is dose-corrected exposure relative to a reference, in per cent. The term Cmax denotes the peak of the concentration-time curve. In the case of `CS(=N)(=O)NCCNc1nonc1C(=NO)Nc1ccc(F)c(Br)c1` (racemic) [LW105-1-1], the results for the IC50 in data set [1] and in data set [2] were 22.3 nM and 11.5 nM, respectively. The AUC(0-t) in data set [3] (iv, 3 mg/kg, intravenous 3 mg/kg) worked out at 1430 ng·h/mL; in data set [3] (po, 30 mg/kg, oral gavage 30 mg/kg), 10100 ng·h/mL; in data set [3] (po, 100 mg/kg, oral gavage 100 mg/kg), 39400 ng·h/mL. The half-life in data set [3] (mouse, 3 mg/kg, heading: T1/2, intravenous 3 mg/kg) is 0.688 h; in data set [3] (mouse, oral gavage 30 mg/kg, read-out: T1/2 (converted)), 2.7 h; in data set [3] (mouse, oral gavage 100 mg/kg, read-out: T1/2 (converted)), 2.11 h. For the same compound, the AUC(0-inf) in data set [3] (mouse, intravenous 3 mg/kg) was determined as 1450 ng·h/mL; in data set [3] (mouse, oral gavage 30 mg/kg), 10100 ng·h/mL; in data set [3] (mouse, oral gavage 100 mg/kg), 39300 ng·h/mL. Also, the C0 in data set [3] (mouse, intravenous 3 mg/kg) stood at 2560 ng/mL. Besides, in data set [3] (mouse, intravenous 3 mg/kg), the clearance stood at 34.5 mL/min/kg. Besides, the MRT last amounted to 0.904 h in data set [3] (mouse, intravenous 3 mg/kg); 3.11 h in data set [3] (mouse, oral gavage 30 mg/kg); 1.99 h in data set [3] (mouse, oral gavage 100 mg/kg). In addition, the Vd in data set [3] (mouse, intravenous 3 mg/kg, read-out: steady-state volume (Vdss)) was found to be 1.87 L/kg. Besides, the Tmax stood at 0.5 h in data set [3] (mouse, oral gavage 30 mg/kg) and 0.25 h in data set [3] (mouse, oral gavage 100 mg/kg). Further, the bioavailability in data set [3] (mouse, oral gavage 30 mg/kg) was 69.9%; in data set [3] (mouse, oral gavage 100 mg/kg), 81.4%. Further, the Cmax in data set [3] (mouse, oral gavage 30 mg/kg) was 4810 ng/mL; in data set [3] (mouse, oral gavage 100 mg/kg) it was 20700 ng/mL. In addition, the tumor inhibition rate in data set [4] (mouse CT26 model, 300 mg/kg oral twice a day) is 40.6%. Further, the anti-tumor growth effect entry in data set [4] (mouse CT26 model, 30, 100, 300 mg/kg oral) is reported as “dose-dependent anti-tumor growth effect”.
